Assay results from US20080027082A1, “USE OF ADENOSINE A1 ANTAGONISTS IN RADIOCONTRAST MEDIA INDUCED NEPHROPATHY” (priority 2006, published 2008).
One block for each molecule: values may come before it.

Legend:
Permeability (Table 1) = assay type: in vitro ADME
PGP = PGP (Homo sapiens, UniProt P08183); experiment: PGP-factor (Table 1); assay type: in vitro ADME
[1] = system: radiocontrast media induced nephropathy; conditions: Shammas, 2001, Welch, 2002, Huber; cited from earlier work
[2] = system: renal hemodynamics and oxygenation; experiment: renal blood flow and oxygenation following radiocontrast media (iodixanol) in anesthetized rats; assay type: in vivo, Wistar rats
Description: The experimental protocol was based on a previously published methodology. The experiments were performed using adult male 3-4 months old Wistar rats. Body weight ranged from 250 to 400 g. The rats received a standard chow diet. Feeding and drinking was discontinued approx. 12 hours before the surgery. The animals were anesthetized by intraperitoneal injection of urethane solution ([…]; 6 ml per kg), and placed on a heated table to maintain body temperature at 37° C. throughout surgery and subsequent experiments. After an incision in the left groin the femoral artery was carefully prepared and cannulated to measure the mean arterial blood pressure. Another catheter was placed into the carotid artery for administration of contrast medium. Finally, an inflatable cuff was placed around the abdominal aorta above the origin of the renal arteries. A servo controlled inflation of the cuff allowed for the reduction and maintenance of the renal perfusion pressure at a preset levels. Two 500 μm diameter optical fibers were implanted into the cortex and the outer medulla of left kidney to determine local laser-Doppler fluxes and an ultrasound transit time flowprobe was placed around the renal artery of the same kidney to determine total kidney blood flow (RBF). Renal oxygen levels (oxygen partial pressure=pO2) was likewise determined locally (cortical and medullary pO2, respectively; OxyLite, Oxford Optronics). After implantation and stabilization, the experiment was started by measuring hemodynamic and oxygenation parameters under baseline conditions. Vehicle or substance 1 (5 mg/kg as an intravenous bolus) were then administered. New measurements were performed, and 30 min after vehicle or substance 1 administration, lodixanol (Visipaque 320; 1.5 mL i.a.; Amersham Buchier, Braunschweig, Germany), or vehicle was applied. The experimental groups were thus: 1. Vehicle+Vehicle (‘control’), Vehicle+Visipaque, and sunstance 1+Visipaque.

[3] = system: radiocontrast media-dependent acute kidney failure; experiment: diuresis and natriuresis following radiocontrast media (diatrizoate) in anesthetized rats; assay type: in vivo, Sprague-Dawley rats; conditions: for diuresis / sodium excretion: mean ± SEM
Description: The radiocontrast media-dependent acute kidney failure was induced using an experimental protocol based on that published by the group of Osswald,^22 Male Sprague-Dawley rats of approximately 300 g body weight were acclimatized for at least 1 week before the start of the chronic pretreatment with the nitric oxide synthase inhibitor N-nitro-L-arginine methyl ester (L-NAME for 7-9 weeks at a daily dose of 5 mg/kg). For the experiments, the overnight fasted rats (which had continued free access to drinking water) were anesthetized with Inactin (80 mg/kg, given i.p. as a bolus). Catheters were placed (i) in the trachea, (ii) in one jugular vein (for radiocontrast medium administration, and background saline infusion; see below), (iii) in the other jugular vein for vehicle or sunstance 1 administration, (iv) in the carotid artery for blood sampling, and part of the background saline infusion; see below), and (v) in the bladder for urine collection. The rats were kept on a heated table to maintain their body temperature at 37° C. After collecting urine samples for 60-90 min for baseline measurements, the animals received vehicle or substance 1 as follows: a loading bolus of 0.15, or 1.5 mg substance 1 per kg, or vehicle, in a volume of 1 mukg, was applied intravenously, followed by a continuous intravenous infusion at a rate of […] substance 1 per kg per min, or vehicle, in a volume of 11 μL/kg·min until the end of the experiment. With these dose regimens steady-state plasma levels of substance 1 were 59±23, and 314±36 ng/mL, respectively. Ten minutes after the start of the substance 1 (or vehicle) treatment, diatrizoate (meglumine salt, Urolux, 0.61 g diatrizoate/mL, corresponding to a total iodine content of 290 mg/mL, Sanochemia Diagnostics, Neuss, Germany), prewarmed at body temperature, was infused iv over 3 min at a dose of 2.55 mL/kg, corresponding to 740 mg iodine/kg (the timepoint of contrast medium administration was defined as t0). A background saline solution was infused from the beginning and maintained at a rate of ˜1.2 mL/h per 100 g until the end of the experiments (0.24 mL/h via the arterial catheter, and 0.96 mL/h via the venous line). This infusion was required to compensate for the volume loss due to the operation, and the subsequent blood sampling, but also to insure the patency of the arterial catheter between the blood sampling timepoints. Urine samples were collected according to the following schedule: baseline (60-90 min preceding the start of substance 1, or vehicle, administration), t0-30 min (0.5 h timepoint), 30-60 min (1 h timepoint), 60-120 min (2 h timepoint), and 120-180 min (3 h timepoint). Plasma samples were taken at the end of each of the above periods. The measured values of urine volume, and urine levels of Na^+ were used to calculate the rates of diuresis and natriuresis over the time intervals mentioned above.

adenosine A1 receptor = biological target: T1, adenosine A1 receptor (Homo sapiens, UniProt P30542); experiment: receptor binding and enzyme profiling in a wide range of assays
T1 sequence (P30542 1-326): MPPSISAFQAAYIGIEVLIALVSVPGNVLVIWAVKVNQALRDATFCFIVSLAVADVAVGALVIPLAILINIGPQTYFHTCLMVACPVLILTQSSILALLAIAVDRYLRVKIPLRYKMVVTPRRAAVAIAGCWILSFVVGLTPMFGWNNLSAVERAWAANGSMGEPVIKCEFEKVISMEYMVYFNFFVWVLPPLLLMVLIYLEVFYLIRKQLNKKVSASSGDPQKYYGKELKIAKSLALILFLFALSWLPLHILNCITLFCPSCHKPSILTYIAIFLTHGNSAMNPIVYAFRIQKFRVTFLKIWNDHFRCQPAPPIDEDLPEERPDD
From the text: (§1) The phosphodiesterase PDE4 inhibiting activity may be used for titration purposes of patients. The phosphodiesterase PDE4 inhibiting activity of the compounds described herein prevents overdosage of the selective A1 antagonist by alarming the patients with self-evident, non-serious signals like e.g. headache before serious events like e.g. CNS convulsion can occur.

phosphodiesterase PDE4 = phosphodiesterase PDE4 inhibition (enzyme profiling); assay type: biochemical; conditions: read-out: calculated pKi of the PDE4 inhibition (converted)
From the text: as §1

[4] = system: phosphodiesterases (PDE 1, 2, 3, 5 and 6); experiment: inhibition of other phosphodiesterases (enzyme profiling); assay type: biochemical; conditions: relative to PDE4 inhibition
From the text: as §1

[5] = steady-state plasma levels in anesthetized L-NAME pretreated rats; assay type: in vivo, Sprague-Dawley rats; conditions: rat
Description: The radiocontrast media-dependent acute kidney failure was induced using an experimental protocol based on that published by the group of Osswald,^22 Male Sprague-Dawley rats of approximately 300 g body weight were acclimatized for at least 1 week before the start of the chronic pretreatment with the nitric oxide synthase inhibitor N-nitro-L-arginine methyl ester (L-NAME for 7-9 weeks at a daily dose of 5 mg/kg). For the experiments, the overnight fasted rats (which had continued free access to drinking water) were anesthetized with Inactin (80 mg/kg, given i.p. as a bolus). Catheters were placed (i) in the trachea, (ii) in one jugular vein (for radiocontrast medium administration, and background saline infusion; see below), (iii) in the other jugular vein for vehicle or sunstance 1 administration, (iv) in the carotid artery for blood sampling, and part of the background saline infusion; see below), and (v) in the bladder for urine collection. The rats were kept on a heated table to maintain their body temperature at 37° C. […] The measured values of urine volume, and urine levels of Na^+ were used to calculate the rates of diuresis and natriuresis over the time intervals mentioned above.

[6] = Low dose, 0.5 h after CM (diatrizoate)
[7] = Low dose, 1 h after CM (diatrizoate)
[8] = Low dose, 2 h after CM (diatrizoate)
[9] = Low dose, 3 h after CM (diatrizoate)
[10] = high dose, 0.5 h after CM (diatrizoate)
[11] = high dose, 1 h after CM (diatrizoate)
[12] = high dose, 2 h after CM (diatrizoate)
[13] = high dose, 3 h after CM (diatrizoate)

Chain of PGP (P08183 whole entry): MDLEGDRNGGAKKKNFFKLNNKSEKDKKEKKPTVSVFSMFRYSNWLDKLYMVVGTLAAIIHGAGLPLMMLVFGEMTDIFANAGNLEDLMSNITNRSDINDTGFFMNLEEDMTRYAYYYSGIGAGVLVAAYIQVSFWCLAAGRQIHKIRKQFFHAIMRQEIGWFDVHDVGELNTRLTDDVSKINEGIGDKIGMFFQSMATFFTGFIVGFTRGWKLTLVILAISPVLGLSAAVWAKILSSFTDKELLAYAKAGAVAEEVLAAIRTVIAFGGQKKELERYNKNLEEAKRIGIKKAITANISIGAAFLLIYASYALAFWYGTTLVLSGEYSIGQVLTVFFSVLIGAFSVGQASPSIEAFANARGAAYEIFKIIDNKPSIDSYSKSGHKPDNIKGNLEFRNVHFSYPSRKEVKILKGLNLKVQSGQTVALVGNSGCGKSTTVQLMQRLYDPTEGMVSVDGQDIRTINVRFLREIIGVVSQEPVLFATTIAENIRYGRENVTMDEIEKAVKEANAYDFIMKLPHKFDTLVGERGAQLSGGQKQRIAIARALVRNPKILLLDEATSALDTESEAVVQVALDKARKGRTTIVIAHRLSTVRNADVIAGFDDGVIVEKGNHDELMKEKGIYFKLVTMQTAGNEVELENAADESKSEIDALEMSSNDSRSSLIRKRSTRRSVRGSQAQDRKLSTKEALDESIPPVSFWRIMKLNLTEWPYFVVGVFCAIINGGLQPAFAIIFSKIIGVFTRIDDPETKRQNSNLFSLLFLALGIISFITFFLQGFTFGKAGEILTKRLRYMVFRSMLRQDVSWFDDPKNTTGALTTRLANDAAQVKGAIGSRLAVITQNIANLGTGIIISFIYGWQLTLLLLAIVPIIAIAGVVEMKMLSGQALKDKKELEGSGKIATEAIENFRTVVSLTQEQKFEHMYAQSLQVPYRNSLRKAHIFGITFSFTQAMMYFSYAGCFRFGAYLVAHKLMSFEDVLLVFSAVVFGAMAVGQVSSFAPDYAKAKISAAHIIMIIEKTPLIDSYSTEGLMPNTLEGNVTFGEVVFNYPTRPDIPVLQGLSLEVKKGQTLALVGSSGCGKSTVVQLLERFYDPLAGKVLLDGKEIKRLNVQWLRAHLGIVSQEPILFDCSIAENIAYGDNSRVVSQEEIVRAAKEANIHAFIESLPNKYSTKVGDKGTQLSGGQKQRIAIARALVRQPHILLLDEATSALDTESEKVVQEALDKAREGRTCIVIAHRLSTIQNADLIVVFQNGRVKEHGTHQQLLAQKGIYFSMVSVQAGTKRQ

Permeability (%) (Permeability (Table 1)): 27.0%
PGP-factor (PGP): 10.1
Structure (SMILES): CS(=O)(=O)O.NC(=O)[C@@H]1C[C@H](O)CN1c1nc(-c2ccccc2)nc2[nH]ccc12 [substance 2, (4S)-4-hydroxy-1-(2-phenyl-7H-pyrrolo[2,3-a]pyrimidin-4-yl)-L-prolinamide methanesulfonate]

Permeability (%) (Permeability (Table 1)): 31.1%
PGP-factor (PGP): 1.4
Structure (SMILES): CCCn1c(=O)c2[nH]c(C34CC5CC(CC3C5)C4)nc2n(CCC)c1=O [KW3902, reference compound]

Permeability (%) (Permeability (Table 1)): 37.4%
PGP-factor (PGP): 1.5
Ki (phosphodiesterase PDE4): 750 nM
activities on other phosphodiesterases (PDE 1, 2, 3, 5 and 6), fold lower than on PDE4 [4]: at least 25 fold
steady-state plasma level ([5]; iv loading bolus 0.15 mg/kg, then infusion 1.5 pg per kg per min (so in the source)): 59 ± 23 ng/mL
steady-state plasma level ([5]; iv loading bolus 1.5 mg/kg, then infusion 15 pg per kg per min (so in the source)): 314 ± 36 ng/mL
Structure (SMILES): CS(=O)(=O)O.OC1CCC(Nc2nc(-c3ccccc3)nc3[nH]ccc23)CC1 (stereo not drawn) [substance 1, 4-[(2-phenyl-7H-pyrrolo[2,3-o]pyrimidin-4-yl)amino]-trans-cyclohexanol methanesulfonate]
renal cortical vascular conductance ([2]; substance 1 5 mg/kg iv + Visipaque (FIG. 4)): maintained this parameter at levels seen in the vehicle control group
cortical pO2 ([2]; substance 1 5 mg/kg iv + Visipaque, until the end of the experiment (FIG. 5)): significant increase
renal cortical blood flow ([2]; substance 1 5 mg/kg iv + Visipaque, vs. Vehicle+Visipaque, 20 min measurement (FIG. 3)): sustained and significant increase
effect on Visipaque-induced changes of medullary blood flow and medullary vascular conductance ([2]; substance 1 5 mg/kg iv + Visipaque, not shown): only partially (but significantly) prevented these effects
effect on the Visipaque-induced increase in mean arterial blood pressure ([2]; substance 1 5 mg/kg iv bolus 30 min before Visipaque 1.5 mL i.a., not shown): partially prevented
hemodynamic parameters (arterial blood pressure, RBF) before the Visipaque challenge ([2]; substance 1 5 mg/kg iv bolus, not shown): did not modify
diuresis [3, 6]: 27.31 ± 2.36 mL per kg body weight per h
sodium excretion [3, 6]: 3039 ± 354 μmol per kg body weight per h
diuresis [3, 7]: 3.87 ± 0.40 mL per kg body weight per h
sodium excretion [3, 7]: 338 ± 81 μmol per kg body weight per h
diuresis [3, 8]: 3.34 ± 0.42 mL per kg body weight per h
sodium excretion [3, 8]: 613 ± 121 μmol per kg body weight per h
diuresis [3, 9]: 3.54 ± 0.50 mL per kg body weight per h
sodium excretion [3, 9]: 842 ± 121 μmol per kg body weight per h
persistence of the stimulating effect on diuresis ([3]; after contrast medium (diatrizoate) administration): at least 3 h
potassium excretion ([3]; after diatrizoate, throughout the experiment, not shown): not relevantly affected
chloride excretion ([3]; after diatrizoate, not shown): stimulated
diuresis [3, 10]: 28.01 ± 2.02 mL per kg body weight per h
sodium excretion [3, 10]: 3301 ± 306 μmol per kg body weight per h
diuresis [3, 11]: 4.97 ± 0.30 mL per kg body weight per h
sodium excretion [3, 11]: 520 ± 77 μmol per kg body weight per h
diuresis [3, 12]: 3.13 ± 0.27 mL per kg body weight per h
sodium excretion [3, 12]: 591 ± 88 μmol per kg body weight per h
diuresis [3, 13]: 3.11 ± 0.36 mL per kg body weight per h
sodium excretion [3, 13]: 830 ± 91 μmol per kg body weight per h
conclusion from receptor binding and enzyme profiling (adenosine A1 receptor): selective adenosine A1 receptor ligand with some phosphodiesterase PDE4 inhibiting activity

More lines, now with the values behind:

Structure (SMILES): Cn1c(=O)c2[nH]cnc2n(C)c1=O [Aminophylline]
protection against radiocontrast media induced nephropathy [1]: does not appear to add a protective role

Structure (SMILES): Cn1c(=O)c2[nH]cnc2n(C)c1=O [theophylline]
protection against radiocontrast media induced nephropathy [1]: effective
